The results in this text go back to ChEMBL document CHEMBL1641523, “Hypericins and thioredoxin reductase: Biochemical and docking studies disclose the molecular basis for effective inhibition by naphthodianthrones” (Bioorg Med Chem, 2011).

The source made the active and inactive calls. The rule behind the calls is not given here.

The target in test [1] is T1, Thioredoxin reductase 1, cytoplasmic (Rattus norvegicus, UniProt O89049).
T1 sequence (O89049 whole entry): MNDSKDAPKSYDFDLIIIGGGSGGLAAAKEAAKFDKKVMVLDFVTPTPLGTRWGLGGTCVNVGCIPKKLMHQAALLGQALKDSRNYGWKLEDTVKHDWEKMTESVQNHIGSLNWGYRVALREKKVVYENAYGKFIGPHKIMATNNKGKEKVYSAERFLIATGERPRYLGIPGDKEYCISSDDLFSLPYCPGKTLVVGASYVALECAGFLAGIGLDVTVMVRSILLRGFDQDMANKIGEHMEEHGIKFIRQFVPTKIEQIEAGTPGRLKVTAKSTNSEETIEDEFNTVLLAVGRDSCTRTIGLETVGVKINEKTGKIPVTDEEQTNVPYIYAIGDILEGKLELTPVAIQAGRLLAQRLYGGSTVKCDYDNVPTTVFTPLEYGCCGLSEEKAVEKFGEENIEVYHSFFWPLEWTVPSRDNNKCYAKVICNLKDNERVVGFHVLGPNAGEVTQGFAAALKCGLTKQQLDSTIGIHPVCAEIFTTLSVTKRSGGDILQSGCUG
The test is described as follows: Inhibition of rat liver cytosolic TrxR1 by spectrophotometry.

Test [2] deals with Thioredoxin reductase 2, mitochondrial (Rattus norvegicus, UniProt Q9Z0J5). The test is described as follows: Inhibition of rat liver mitochondrial TrxR2 by spectrophotometry.
Sequence of Thioredoxin reductase 2, mitochondrial (Q9Z0J5 whole entry): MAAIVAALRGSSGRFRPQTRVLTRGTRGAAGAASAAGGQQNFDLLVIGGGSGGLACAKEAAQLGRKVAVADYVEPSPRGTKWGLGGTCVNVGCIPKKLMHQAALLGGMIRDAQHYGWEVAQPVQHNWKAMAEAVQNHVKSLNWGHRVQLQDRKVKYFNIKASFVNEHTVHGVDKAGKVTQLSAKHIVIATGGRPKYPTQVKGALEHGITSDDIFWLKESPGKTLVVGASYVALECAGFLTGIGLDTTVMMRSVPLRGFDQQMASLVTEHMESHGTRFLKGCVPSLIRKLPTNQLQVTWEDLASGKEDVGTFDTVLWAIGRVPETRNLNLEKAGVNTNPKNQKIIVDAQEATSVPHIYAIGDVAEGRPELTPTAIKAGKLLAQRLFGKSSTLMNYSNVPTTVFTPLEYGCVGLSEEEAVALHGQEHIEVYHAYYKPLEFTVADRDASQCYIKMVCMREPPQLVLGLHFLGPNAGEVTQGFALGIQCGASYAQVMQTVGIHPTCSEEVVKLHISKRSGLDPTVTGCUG
Test [3] deals with T2, Glutathione reductase (Saccharomyces cerevisiae S288c, UniProt P41921).
T2 sequence (P41921 whole entry): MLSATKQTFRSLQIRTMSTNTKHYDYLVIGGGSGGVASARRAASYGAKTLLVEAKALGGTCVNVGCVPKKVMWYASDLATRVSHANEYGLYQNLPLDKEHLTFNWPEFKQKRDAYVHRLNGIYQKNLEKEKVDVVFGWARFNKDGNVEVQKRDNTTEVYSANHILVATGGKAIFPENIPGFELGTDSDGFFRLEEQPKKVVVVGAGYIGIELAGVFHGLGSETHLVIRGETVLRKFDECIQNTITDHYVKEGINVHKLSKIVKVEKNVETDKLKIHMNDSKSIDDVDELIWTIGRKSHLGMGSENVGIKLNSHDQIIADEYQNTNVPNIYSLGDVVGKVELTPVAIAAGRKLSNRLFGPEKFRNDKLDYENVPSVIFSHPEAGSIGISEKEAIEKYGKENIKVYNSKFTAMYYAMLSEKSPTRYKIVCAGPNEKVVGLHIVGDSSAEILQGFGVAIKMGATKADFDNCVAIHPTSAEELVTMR
The test is described as follows: Inhibition of yeast glutathione reductase by spectrophotometry.

For test [4], the target named is T3, Thioredoxin reductase 1, cytoplasmic (Rattus norvegicus) (UniProt O89049).
T3 sequence (whole entry): T1 sequence (O89049 whole entry)
The test is described as follows: Inhibition of rat liver cytosolic TrxR1 at 50 to 100 uM by spectrophotometry in presence of 0.025 mM NADPH.

Test [5] addresses T1, Thioredoxin reductase 1, cytoplasmic. The test is described as follows: Mixed-type inhibition of rat liver cytosolic TrxR1 at protein-substrate complex by Lineweaver-Burk plot analysis.
Test [6] concerns the target T3, Thioredoxin reductase 1, cytoplasmic (Rattus norvegicus). The test is described as follows: Inhibition of rat liver cytosolic TrxR1 at 100 uM by spectrophotometry in presence of 0.25 mM NADPH.
The target in test [7] is Thioredoxin reductase 2, mitochondrial (Rattus norvegicus) (UniProt Q9Z0J5). The test is described as follows: Inhibition of rat liver mitochondrial TrxR2 at 100 uM by spectrophotometry in presence of 0.25 mM NADPH.
Sequence of Thioredoxin reductase 2, mitochondrial (Rattus norvegicus) (Q9Z0J5 whole entry): as the sequence (Q9Z0J5 whole entry) above
For test [8], the target named is T3, Thioredoxin reductase 1, cytoplasmic (Rattus norvegicus). The test is described as follows: Inhibition of rat liver cytosolic TrxR1 at 5 uM after 2 mins by spectrophotometry.
The target of test [9] is T1, Thioredoxin reductase 1, cytoplasmic. The test is described as follows: Mixed-type inhibition of rat liver cytosolic TrxR1 by Lineweaver-Burk plot analysis.
In test [10] the target is T3, Thioredoxin reductase 1, cytoplasmic (Rattus norvegicus). The test is described as follows: Inhibition of rat liver cytosolic TrxR1 at 20 uM after 1 hr by spectrophotometry.
Test [11] shares this target. The test is described as follows: Inhibition of rat liver cytosolic TrxR1 at 20 uM after 2 mins by spectrophotometry.

Regarding `Cc1cc(O)c2c(c1)C(=O)c1cc(O[C@@H]3O[C@@H](C)[C@H](O)[C@@H](O)[C@H]3O)cc(O)c1C2=O` [FRANGULIN A], the IC50 in [1] (read-out: IC50) and in [2] (read-out: IC50) was above 200 µM throughout.
Turning to `O=C(O)c1cc(O)c2c(c1)C([C@H]1c3cc(C(=O)O)cc(O)c3C(=O)c3c(O[C@@H]4O[C@H](CO)[C@@H](O)[C@H](O)[C@H]4O)cccc31)c1cccc(O[C@@H]3O[C@H](CO)[C@@H](O)[C@H](O)[C@H]3O)c1C2=O` (some centres not stated) [SENNOSIDE A,B], the IC50 in [1] (read-out: IC50) and in [2] (read-out: IC50) was above 200 µM in each case.
For `O=C1c2c(O)cccc2C([C@@H]2O[C@H](CO)[C@@H](O)[C@H](O)[C@H]2O)c2cc(CO)cc(O)c21` (some centres not stated) [ALOIN], the IC50 in test [1] (read-out: IC50) and in [2] (read-out: IC50) was above 200 µM each time.
For `Cc1cc(O)c2c(c1)C(=O)c1cccc(O)c1C2=O` [CHRYSOPHANOL], the IC50 turned out to be 194 µM in test [1] (read-out: IC50) and 181 µM in test [2] (read-out: IC50).
The corresponding values for `O=C1c2ccccc2C(=O)c2c(O)ccc(O)c21` [QUINIZARIN] are above 200 µM and above 200 µM.
In the case of `O=C1c2ccccc2Cc2ccccc21` [ANTHRONE], the IC50 in [1] (read-out: IC50) and in test [2] (read-out: IC50) was above 200 µM in each case.
In the case of `Cc1cc(O)c2c(c1)C(=O)c1c(c(O)cc(O)c1-c1c(O[C@@H]3O[C@H](CO)[C@@H](O)[C@H](O)[C@H]3O)cc(O)c3c1C(=O)c1cc(C)cc(O)c1C3=O)C2=O` [SKYRIN GLUCOSIDE], the IC50 in [1] (read-out: IC50) and in test [2] (read-out: IC50) was above 200 µM each time.
Consider `Cc1cc(O)c2c(=O)c3c(O)cc(O)c4c5c(O)cc(O)c6c(=O)c7c(O)cc(CO)c8c1c2c(c34)c(c65)c78` [PSEUDOHYPERICIN], for which the IC50 is 2.2 µM in test [3]; 4.6 µM in test [1] (read-out: IC50); 4.41 µM in [1] (read-out: pIC50 (converted)); 7.9 µM in [2] (read-out: IC50); 7.45 µM in [2] (read-out: pIC50 (converted)). The inhibition result in test [4], in [6] and in test [7] was “Active” in each case. In addition, the Ki in test [5] was 8.1 µM; in [9] it was 1.9 µM. The same compound registered an inhibition in test [8] of 50%.
`O=C1c2cccc(O)c2C(=O)c2c(O)cc(CO)cc21` [ALOE-EMODIN]: the values for the IC50 in test [1] (read-out: IC50) and in test [2] (read-out: IC50) were 180 µM and above 200 µM, respectively.
The corresponding values for `O=C(O)c1cc(O)c2c(c1)C(=O)c1cccc(O)c1C2=O` [RHEIN] are 84 µM and 123 µM.
The corresponding values for `O=C1c2cccc(O)c2C(=O)c2c(O)cccc21` [DANTHRON] are above 200 µM and above 200 µM.
The corresponding values for `COc1cc(O)c2c(c1)C(=O)c1cc(C)cc(O)c1C2=O` [PHYSCION] are 185 µM and 132 µM.
As to `Cc1cc(O)c2c(=O)c3c(O)cc(O)c4c5c(O)cc(O)c6c(=O)c7c(O)cc(C)c8c1c2c(c34)c(c78)c65` [HYPERICIN], the IC50 in test [3] was 3.67 µM; in test [1] (read-out: IC50) it was 198 µM; in test [1] (read-out: pIC50 (converted)) it was 158 µM; in test [2] (read-out: IC50), 49 µM; in test [2] (read-out: pIC50 (converted)), 43.2 µM. For the same compound, the figures for the inhibition in test [10] and in [11] were 60% and 20%, respectively. Further, the inhibition entry in [6] and in test [7] was “inactive” each time.
